In article PMC12040169 (PLOS Biology, 2025):

Test: in vitro
Settings: human, hela cells, % viability

In order of falling viability at 28.5 h, 10 µM:
1. Cc1nc2ncccn2c1-c1csc(Nc2ccc(C(=O)O)cc2)n1 [CBK263284]  125%
2. CCN(CC)S(=O)(=O)c1ccc(Cl)c(C(=O)Oc2cccc3cccnc23)c1 [CBK263205]  118%
3. Cc1ccccc1C(=O)N/N=C/c1ccc(Sc2nnnn2-c2ccccc2)o1 [CBK263259]  114%
4. Cc1ccc(-c2nnc(-c3cccc(S(=O)(=O)N4CCOCC4)c3)o2)cc1 [CBK263215]  112%
5. CCOC(=O)c1c(NC(=O)CN2CCCCC2)sc2c1CCCC2=O [CBK263224]  112%
6. O=S(=O)(NCc1ccccc1)c1cc(S(=O)(=O)c2ccc(Cl)cc2)ccc1Cl [CBK263207]  109%
7. Cc1c(Cl)cccc1NC(=O)C(=O)NCCCN1CCOCC1 [CBK263276]  109%
8. Nn1cnn2c(SCCSC3CCCCC3)nnc12 [CBK263192]  108%
9. Cc1nc(N)sc1-c1csc(Nc2ncccn2)n1 [CBK263307B]  108%
10. O=C(O)CSCc1ccc(C(=O)O)o1 [CBK263267]  107%
11. C=CCn1c2ccccc2c2nnc(SCC(=O)N3c4ccccc4Sc4ccccc43)nc21 [CBK263237]  106%
12. Nn1cnn2c(SCC(=O)c3cccs3)nnc12 [CBK263184]  105%
13. O=C(CSc1nc2ccccc2[nH]1)Nc1cccc(C(=O)O)c1 [CBK263225]  105%
14. CCOC(=O)c1ccc(N2C(=O)CC(N3CCN(c4ncccn4)CC3)C2=O)cc1 (stereo not shown) [CBK263306]  105%
15. COc1ccc(C(=O)N/C(=C/c2ccc([N+](=O)[O-])cc2)c2nc3ccc(C(F)(F)F)cc3[nH]2)cc1OC [CBK263199]  104%
16. COc1ccc(NS(=O)(=O)c2ccc(Cl)c(C(=O)Nc3ccccc3C(=O)O)c2)cc1 [CBK263209]  104%
17. O=[N+]([O-])c1ccc2c(c1)C(N1CCOCC1)/C(=C/C1(O)CCCCC1)O2 (stereo not shown) [CBK263200]  103%
18. O=C(CC1Nc2ccccc2NC1=O)Nc1cccc(C(=O)O)c1 (stereo not shown) [CBK263155]  102%
19. Cc1ccc(NC(=O)/C(C#N)=C/c2ccc(-c3ccccc3C(=O)O)o2)cc1Cl [CBK263208]  102%
20. Cc1cc(C)nc(SCC(=O)Nc2cccc(C(=O)O)c2)n1 [CBK263214]  101%
21. COc1ccc(-n2c(SCC(N)=O)nc3sc4c(c3c2=O)CC(C)(C)OC4)cc1 [CBK263232]  101%
22. O=C(O)c1ccc2c(c1)C(=O)N(c1ccc(-c3nc(-c4ccccc4)c4ccccc4n3)cc1)C2=O [CBK263311]  101%
23. N#C/C(=C\c1ccc(-c2ccc(C(=O)O)cc2)o1)C(=O)NCc1ccco1 [CBK263322]  101%
24. O=C(CSc1nnc2c(n1)[nH]c1ccccc12)Nc1ccccc1[N+](=O)[O-] [CBK263195]  100%
25. Cc1cc(-c2ccccc2)sc1C(=O)/C=C(\O)C(=O)O [CBK263198]  100%
26. CCOc1ccc(N2C(=O)CC(N3CCN(c4ccccn4)CC3)C2=O)cc1 (stereo not shown) [CBK263285]  100%
27. COc1ccc(C(=O)N2CCN(Cc3cccnc3)CC2)cc1OC [CBK263321]  99.3%
28. Cc1ccc(C(=O)Nc2ccccc2C(=O)O)cc1S(=O)(=O)NCc1ccccc1 [CBK263212]  98.7%
29. O=C(O)c1cccc(NC(=O)c2ccc(CSc3ccc(Br)cc3)cc2)c1 [CBK263226]  98.3%
30. N#C/C(=C/c1ccc(OCc2ccc(C(=O)O)cc2)cc1)C(=O)Nc1ccc(Cl)cc1 [CBK263187]  98.2%
31. Cc1ccc(NC(=O)CCN2C(=O)c3cccc([N+](=O)[O-])c3C2=O)c(Br)c1 [CBK263172]  98%
32. O=C(O)c1ccc(Br)c(S(=O)(=O)Nc2ccc(Cl)cc2)c1 [CBK263247]  98%
33. Cc1cc(C)nc(SCC(=O)Nc2ccc(C(=O)O)cc2)n1 [CBK263223]  97.8%
34. CN1CCN(c2ccc([N+](=O)[O-])cc2/C=N/NC(=O)CCc2ccccc2O)CC1 [CBK263281]  97.7%
35. COc1ccc(C(=O)CSc2nnc(-c3ccccc3)[nH]2)cc1[N+](=O)[O-] [CBK263299]  97.4%
36. CC(=O)c1ccc(NC(=O)c2cccc(S(=O)(=O)N3CCCCC3)c2)cc1 [CBK263246]  96.4%
37. Cc1nc(C)c(-c2csc(Nc3ccc(S(N)(=O)=O)cc3)n2)s1 [CBK263292B]  95.8%
38. COc1cc(/C=N/Nc2ccc(C(=O)O)cc2)cc(Br)c1O [CBK263318]  95.8%
39. N#Cc1c(NC(=O)c2cc(S(=O)(=O)N3CCOCC3)c(Cl)cc2Cl)sc2c1CCCC2 [CBK263204]  95.7%
40. COc1ccc(CNCc2ccc(Cl)cc2)cc1OC [CBK263315]  95.4%
41. CCCC(=O)NC(c1ccc(OC)c(OC)c1)c1c(O)ccc2ccccc12 (stereo not shown) [CBK263269]  95.2%
42. COc1cc(CN2CCN(Cc3cccc([N+](=O)[O-])c3)CC2)cc(OC)c1 [CBK263156]  95%
43. N#C/C(=C\c1ccc(C(=O)O)cc1)C(=O)NCC1CCCO1 (stereo not shown) [CBK263228]  95%
44. S=C(NCCCN1CCOCC1)Nc1cccc(Cl)c1 [CBK263255]  95%
45. COc1ccccc1OCCOc1cccc(/C=N/n2cnnc2)c1 [CBK263288]  94.7%
46. Cc1ccc(C(=O)Oc2cccc(NC(=O)c3ccco3)c2)cc1S(=O)(=O)N1CCOCC1 [CBK263211]  94.1%
47. N=C(N/N=C\c1ccncc1)N/N=C\c1ccncc1 [CBK263278C]  94.1%
48. O=c1[nH]c(=O)c2nnc(N/N=C\c3ccc(O)cc3)nc2[nH]1 [CBK263312]  94.1%
49. Cc1[nH]c(=O)[nH]c1C(=O)CCCCC(=O)O [CBK263197]  94%
50. O=C(c1coc2ccc(O)c(CN3CCCCC3)c12)C1CC1 [CBK263206C]  93.7%
51. c1nnc(SCc2ccc(CSc3nnc[nH]3)cc2)[nH]1 [CBK263282]  93.5%
52. CCOc1ccc(/N=C2/SC(C(=O)O)CC(=O)N2Cc2ccc3c(c2)OCO3)cc1 (stereo not shown) [CBK263296]  93.3%
53. CC1C(=O)N(c2ccc(Cl)c(Cl)c2)C(=N)N1c1nc(N(C)C)nc(N(C)C)n1 (stereo not shown) [CBK263182]  93.2%
54. COc1ccc(/C(N)=N/OC(=O)Cc2ccc(Cl)cc2)cc1OC [CBK263272]  93.2%
55. CCOC(=O)c1c(NC(=O)CSc2nc3ccccc3s2)sc2c1CCC2 [CBK263220]  93%
56. Cc1nc2ccccn2c1-c1csc(Nc2cccc(C(=O)O)c2)n1 [CBK263303B]  92.7%
57. COc1ccc(NC(=O)c2ccc3nsnc3c2)cc1 [CBK263160]  92.6%
58. COc1cc(OC)c(OC)cc1CN1CCN(S(=O)(=O)c2ccc(C)cc2)CC1 [CBK263323]  92.4%
59. O=S(=O)(NC(c1c[nH]c2ccccc12)C(Cl)(Cl)Cl)c1ccccc1 (stereo not shown) [CBK263279]  91.7%
60. O=C(CC1c2ccccc2Oc2ccccc21)Nc1ccc(Cc2ccncc2)cc1 [CBK263271]  91.6%
61. O=C(O)CCN1CCn2c3c(c4cc(C5CCCCC5)ccc42)CCCC31 (stereo not shown) [CBK263236]  91.4%
62. O=C(Oc1cccc2cccnc12)c1cc(S(=O)(=O)N2CCOCC2)ccc1Cl [CBK263210]  91.3%
63. COc1ccc(CCNC(=O)C(=O)Nc2ccc(C)c(C)c2)cc1 [CBK263222]  91.1%
64. O=C(O)c1ccc(Br)c(S(=O)(=O)NCc2ccccc2)c1 [CBK263202]  90.8%
65. NC(=O)C1CCN(C2CC(=O)NC2=O)CC1 (stereo not shown) [CBK263290]  90.3%
66. C=C(C)Cn1c(SCC(=O)O)nnc1-c1ccc([N+](=O)[O-])cc1 [CBK263159]  89.8%
67. CCNc1ncnc2c1oc1ccccc12 [CBK263298]  89.8%
68. O=C(CSc1nc2ccccc2n1Cc1ccccc1)N/N=C/c1ccco1 [CBK263174]  89.6%
69. COC(=O)c1ccccc1NC(=O)COc1ccc(Br)c(C)c1 [CBK263152]  89.4%
70. CCn1c2ccccc2c2cc(CN3CCN(Cc4c[nH]c5ccccc45)CC3)ccc21 [CBK263167]  89.3%
71. CCN(CC)CCSc1nc2sc3c(c2c(=O)n1-c1ccc(OC)cc1)CCCC3 [CBK263308]  89.3%
72. CC(=O)Oc1ccccc1C(=O)Oc1ccc2c(c1)c(C(C)=O)c(C)n2-c1ccccc1 [CBK263175]  89.2%
73. COc1ccc(C2=NN(c3ccccc3)C(c3cn(-c4ccccc4)nc3-c3ccccc3)C2)cc1 (stereo not shown) [CBK263230]  88.9%
74. COc1ccc(Br)cc1/C=N/NC(=O)C1CC(c2ccccc2)(c2ccccc2)C1 [CBK263218]  88.8%
75. c1ccc2c(c1)[nH]c1nc(SCCN3CCCCC3)nnc12 [CBK263249]  88.7%
76. Cc1cc(S(=O)(=O)Nc2cccc(C(=O)O)c2)c(C)c(S(=O)(=O)c2ccccc2)c1 [CBK263227]  88.3%
77. O=C(CSCC(=O)c1ccc(F)cc1)Nc1ccc2ccccc2c1 [CBK263264]  88.1%
78. COc1ccc(-c2nnc(SCC(=O)NN)n2-c2ccccc2)cc1 [CBK263157]  87.3%
79. CN(C)c1ccc([N+](=O)[O-])cc1/C=N/NC(=O)CCc1ccccc1O [CBK263257]  86.1%
80. CCOc1cccc(NC(=O)/C(C#N)=C\c2cc(C)n(-c3ccc4c(c3)OCO4)c2C)c1 [CBK263191]  85.9%
81. O=C(Nc1ccccc1C(=O)O)c1cc(S(=O)(=O)Nc2cccc(F)c2)ccc1Cl [CBK263242]  84.7%
82. COc1ccc2[nH]c(Sc3c([N+](=O)[O-])nc(C)n3Cc3ccccc3)nc2c1 [CBK263235]  80.7%
83. Cc1ccc(S(=O)(=O)Nc2cc(Sc3nc(C)cc(C)n3)c(O)c3ccccc23)cc1 [CBK263313]  79%

Same assay, conditions: human, hela cells, % viability, bulk resorufin, single well

In order of falling viability at 28.5 h, 10 µM:
1. O=C1NC(=S)NC(=O)C1=Cc1cn(-c2ccccc2)nc1-c1ccc(-c2ccc([N+](=O)[O-])cc2)o1 [CBK263149]  107%
2. S=C(Nc1ccc2nc3c4ccccc4c4ccccc4c3nc2c1)N1CCOCC1 [CBK263153]  94.7%
